Measured values: ChEMBL document CHEMBL2074139, “Increase in bile flow and biliary excretion of glutathione-derived sulfhydryls in rats by drug-metabolizing enzyme inducers is mediated by multidrug resistance protein 2” (Toxicol Sci, 2002)

Target: ATP-binding cassette sub-family C member 2 (Rattus norvegicus, UniProt Q63120)
Assay: TP_TRANSPORTER: Western in vivo SD rat, liver
Type: functional, organism-based, Sprague-Dawley

Sequence of ATP-binding cassette sub-family C member 2 (Q63120 whole entry): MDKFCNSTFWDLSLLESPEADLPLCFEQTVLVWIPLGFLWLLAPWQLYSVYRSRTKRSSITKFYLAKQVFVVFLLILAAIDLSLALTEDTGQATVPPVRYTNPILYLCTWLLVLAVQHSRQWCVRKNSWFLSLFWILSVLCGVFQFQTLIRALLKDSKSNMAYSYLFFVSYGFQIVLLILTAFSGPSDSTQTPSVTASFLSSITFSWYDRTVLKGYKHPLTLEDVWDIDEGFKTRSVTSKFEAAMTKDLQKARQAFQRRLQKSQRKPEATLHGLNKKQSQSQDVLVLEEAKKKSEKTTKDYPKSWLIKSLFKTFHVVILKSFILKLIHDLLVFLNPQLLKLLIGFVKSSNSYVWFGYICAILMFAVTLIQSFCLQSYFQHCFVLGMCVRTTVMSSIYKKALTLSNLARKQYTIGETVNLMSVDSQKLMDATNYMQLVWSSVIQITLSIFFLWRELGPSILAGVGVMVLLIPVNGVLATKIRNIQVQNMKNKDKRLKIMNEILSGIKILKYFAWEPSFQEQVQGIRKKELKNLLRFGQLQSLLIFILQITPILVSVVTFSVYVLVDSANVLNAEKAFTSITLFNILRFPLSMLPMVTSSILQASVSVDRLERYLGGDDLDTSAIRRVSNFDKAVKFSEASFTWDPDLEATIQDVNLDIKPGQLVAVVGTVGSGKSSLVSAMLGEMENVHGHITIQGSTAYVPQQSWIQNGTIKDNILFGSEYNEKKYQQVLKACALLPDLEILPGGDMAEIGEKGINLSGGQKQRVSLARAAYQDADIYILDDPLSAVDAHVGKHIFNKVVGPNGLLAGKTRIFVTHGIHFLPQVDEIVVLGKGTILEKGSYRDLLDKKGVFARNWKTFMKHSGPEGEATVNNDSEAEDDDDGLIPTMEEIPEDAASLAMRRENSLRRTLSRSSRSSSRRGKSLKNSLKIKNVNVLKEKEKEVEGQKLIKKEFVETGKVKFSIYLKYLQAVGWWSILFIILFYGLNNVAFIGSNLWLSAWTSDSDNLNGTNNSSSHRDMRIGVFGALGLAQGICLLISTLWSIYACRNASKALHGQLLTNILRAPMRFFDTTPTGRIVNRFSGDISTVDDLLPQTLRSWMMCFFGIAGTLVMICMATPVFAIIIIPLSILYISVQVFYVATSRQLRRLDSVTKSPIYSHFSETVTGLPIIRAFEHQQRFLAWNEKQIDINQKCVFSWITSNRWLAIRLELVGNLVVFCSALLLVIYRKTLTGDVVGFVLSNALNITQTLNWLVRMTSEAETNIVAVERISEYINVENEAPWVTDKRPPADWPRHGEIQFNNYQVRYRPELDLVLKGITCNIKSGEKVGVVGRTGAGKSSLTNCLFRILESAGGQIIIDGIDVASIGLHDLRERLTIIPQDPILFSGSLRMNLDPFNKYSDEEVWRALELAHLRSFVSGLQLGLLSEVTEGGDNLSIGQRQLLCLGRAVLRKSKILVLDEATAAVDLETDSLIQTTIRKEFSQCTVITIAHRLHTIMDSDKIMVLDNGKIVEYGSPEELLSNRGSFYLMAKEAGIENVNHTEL

SMILES	Activity
CC(=O)[C@H]1[C@H](C#N)C[C@H]2[C@@H]3CC=C4C[C@@H](O)CC[C@]4(C)[C@H]3CC[C@@]21C [PREGNENOLONE CARBONITRILE]	inducer [+]
CCC1(c2ccccc2)C(=O)NC(=O)NC1=O [PHENOBARBITAL]	inducer [+]
